From patent publication US9096643B2, “Cell-protective peptides and uses thereof” (priority 2010, dated 2015) come the findings set out here.

No end group written: not given here.

The test system of assay [1] is Human ESC-derived cardiac cells (Hes2). The assay can be described thus: Caspase 3/7 assay of human ESC-derived cardiac cells. It is filed as cell-based. The conditions noted are these: 50 μM, FIG. 20. The protocol: Human ESC-derived cardiac cell culture, were derived from Day 20 EBs, consisting of greater than 50% cardiomyocytes obtained by directed differentiation of human ES (Hes2) cells as described by Yang et al. (Nature 453, 524-528 (2008)). EBs were dissociated using Collagenase I (Invitrogen) for 2 hrs and 0.05% Trypsin-EDTA (Invitrogen) for 5 min and plated at 40000 cells/cm^2 onto 0.2% gelatin-coated plates in Stempro 34 medium supplemented with VEGF (10 ng/ml) and DKK1 (150 ng/ml). Cells were cultured in the presence of 50 μM QHREDGS, 50 μM DGQESHR (Biomatik) or PBS until they formed a beating monolayer, around 10 days. Peptides were replenished during media changes every 3 days. 100 μM H2O2 (Sigma, dissolved in PBS) was added to culture media for 10 min, washed, and analyzed immediately for CFDA-Live/PI-Dead. Live cells were counted using the cell counter plug in for ImageJ. 0.5 μM or 2.5 μM taxol (Sigma, dissolved in DMSO) was added to culture media for 24 hrs, and the extent of apoptosis was analyzed immediately using the Apo-ONE Homogeneous Caspase Assay (Promega), or TUNEL assay (Roche) as described above. A PBS control was used for H2O2 and DMSO control was used for taxol.

The test system of assay [2] is human iPS cells. Nature of the assay: Teratoma formation after grafting into hind-limb muscles of NOD-SCID mice. It is filed as in vivo. Particulars: 10 passages in 50 μM, grafted into NOD-SCID mice.
The subject of assay [3] is human iPS cells BJ1D. The assay can be described thus: BrdU assay of iPS cell proliferation. In kind it is cell-based. The conditions noted are these: 50 μM, 5 passages, FIG. 16. The protocol:
(§1) After 5 passages in treatment, human iPS cells were passaged as described above in the presence of 50 μM QHREDGS, 50 μM DGQESHR (Biomatik), or PBS (Lonza) onto MEF plates and grown for 3 days. Cultures were pulsed for 1 hr with 10 μM BrdU (Sigma) and immediately analyzed for immunohistochemistry (see below). Ki67 (Millipore, 1:300) co-staining was used to differentiate MEFs from human iPS cells. All samples were counterstained with DAPI (300 nM, Sigma).

Assay [4] relates to human iPS cells 0901B. The assay can be described thus: BrdU assay of iPS cell proliferation. It is filed as cell-based. Particulars: 50 μM, 5 passages, FIG. 17. On the procedure: as §1
Assay [5] relates to human iPS cells BJ1D. The assay can be described thus: iPS cell apoptosis, Apo-ONE Caspase 3/7. In kind it is cell-based. Particulars: 50 μM, five passages, vs PBS and scrambled peptide, FIG. 12A. The protocol: (§2) Human iPS cells were treated for 5 passages and levels of apoptosis were measured 3 days after passaging using the Apo-ONE Homogeneous Caspase assay (Promega) according to manufacturers instructions. The levels of Caspase 3/7 activation were proportional to levels of fluorescence. All statistical analyses were performed using the two-tailed student t-test assuming unequal variance. p<0.05 denote statistical significance.
(§3) IPS cells, BJ1D or 0901B, were treated with 5 μM or 50 μM of QHREDGS peptide, or 50 μM DGQESHR scrambled peptide in PBS with a PBS treated control for five passages and assayed for apoptosis using the APO One Caspase 3/7 system. The levels of Caspase 3/7 activation are proportional to fluorescence. […] Solid bars represent a statistical significance, p<0.05.

Assay [6] has as its system human iPS cells 0901B. The assay can be described thus: iPS cell apoptosis, Apo-ONE Caspase 3/7. It is filed as cell-based. Particulars: 50 μM, five passages, vs PBS and scrambled peptide, FIG. 12B. On the procedure:
as §2, §3

Assay [7] deals with Rat neonatal cardiomyocytes. The assay can be described thus: Doxorubicin induced apoptosis and caspase activation (Western blot). In kind it is cell-based. Particulars: 1 d, doses as low as 5 μM, FIG. 5B,C. On the procedure: Rat neonatal cardiomyocytes were given doxorubicin (Dox) to induce apoptosis and PBS or peptide QHREDGS (1 d), Western blotting was conducted and levels assessed via densitometric analysis (Scion Image software).
For orientation: In western blotting, separated proteins are transferred to a membrane and probed.

Assay [8] deals with human iPS cells. Nature of the assay: EB differentiation of treated iPS cells. It is filed as cell-based. Particulars: after 5 passages of treatment, EB protocol. The protocol: Following 5 passages in continuous treatment, iPS cells were collected and differentiated into embryoid bodies (EB) containing cells of all three germ layers as described Itskovitz-Eldor, J. et al. Mol. Med. 6, 88-95 (2000). For further differentiation and analysis, EBs were plated onto 0.2% gelatin coated plates for another 10 days for attachment and fixed in 4% para-formaldehyde (Sigma) for immunohistochemistry.

For assay [9], the system named is neonatal rat CMs (heart cells). Nature of the assay: Heart cell attachment on peptide-modified Az-chitosan coated coverslips (brightfield cell counts). In kind it is cell-based, rat (Sprague-Dawley). The conditions noted are these: coated glass coverslips, 1, 3 and 5 days of incubation, FIG. 1. The protocol:
Neonatal (1 to 2 day-old) Sprague-Dawley rats were euthanized according to the procedure approved by the University of Toronto Committee on Animal Care. […] The supernatant from 5 collagenase digests of the tissues was collected and centrifuged at 750 rpm (94 g) for 4 min, resuspended in culture medium and pre-plated into T75 flasks (Falcon) for 1 hour to separate the non-adherent cells (enriched CMs) from the adherent cells (non-myocytes). The enriched CMs were used in the studies. The CM culture medium consisted of Dulbecco's Modified Eagle Medium (DMEM) with 4.5 g/L glucose, 4 mM L-glutamine, 10% certified fetal bovine serum (FBS), 100 U/mL penicillin, 100 μg/mL streptomycin, and 10 mM 4-2-hydroxyethyl-1-piperazineethanesulfonic acid buffer (HEPES, Gibco/Invitrogen).
The surfaces used for microscopy analysis were created on circular 12 mm diameter glass coverslips (VWR). These were plasma treated (WS-400BZ-6NPP/Lite, Laurell Technologies) for 30 s. […]
The day before cells were ready to be seeded, the surfaces in the 12-well plates were sterilized by germicidal UV illumination overnight. […]
Brightfield images were taken with 10× magnification of surfaces with cells (N=3) to visualize the morphology and cell attachment (IX81, Olympus). […] The number of cells was then counted using the cell counting plug-in on ImageJ (NIH version 1.36b).

For QHREDGS (angiopoietin 1 peptide), the “reduction of basal apoptosis levels in cardiac cells (Caspase 3/7)” value in assay [1] was determined as 2 fold. The teratoma formation entry in assay [2] is reported as “continued to form teratomas”. Besides, the “rate of proliferation (BrdU incorporation, 1 hr pulse)” value in assay [3] and in assay [4] was “remained the same” in each case. For the same substance, the “Caspase 3/7 activity” value in assay [5] and in assay [6] was “significant reduction of Caspase 3/7 activity” each time. Further, the “activation of caspases-3 and -6” value in assay [7] is “blocked”. The “differentiation into neural, mesodermal and endodermal cells” value in [8] is reported as “retained the competence to differentiate”.
Consider “Az-chitosan-QHREDGS: QHREDGS peptide covalently conjugated to Az-chitosan by EDC chemistry (also: covalently conjugated to Az-chitosan by EDC chemistry, site not given here)”, for which the “cell adhesion / cell attachment to coated surface” value in assay [9] was “significantly greater cell adhesion”.
